Measurements taken from the kinase profiling compilation of Christmann-Franck et al. (2016).

Tests used:
Assay in all cases: KINOMEscan competition binding
Conditions in all cases: compound 10.0 µM
BMPR1B (human) = BMPR1B (human) (UniProt O00238)
BRAF (human) = BRAF (human) (UniProt P15056)
CDK19 (human) = CDK19 (human) (UniProt Q9BWU1)
CDKL2 (human) = CDKL2 (human) (UniProt Q92772)
CSNK1A1L (human) = CSNK1A1L (human) (UniProt Q8N752)
CSNK2A1 (human) = CSNK2A1 (human) (UniProt P68400)
DYRK1B (human) = DYRK1B (human) (UniProt Q9Y463)
Sequence of DYRK1B (human) (Q9Y463 whole entry, looked up): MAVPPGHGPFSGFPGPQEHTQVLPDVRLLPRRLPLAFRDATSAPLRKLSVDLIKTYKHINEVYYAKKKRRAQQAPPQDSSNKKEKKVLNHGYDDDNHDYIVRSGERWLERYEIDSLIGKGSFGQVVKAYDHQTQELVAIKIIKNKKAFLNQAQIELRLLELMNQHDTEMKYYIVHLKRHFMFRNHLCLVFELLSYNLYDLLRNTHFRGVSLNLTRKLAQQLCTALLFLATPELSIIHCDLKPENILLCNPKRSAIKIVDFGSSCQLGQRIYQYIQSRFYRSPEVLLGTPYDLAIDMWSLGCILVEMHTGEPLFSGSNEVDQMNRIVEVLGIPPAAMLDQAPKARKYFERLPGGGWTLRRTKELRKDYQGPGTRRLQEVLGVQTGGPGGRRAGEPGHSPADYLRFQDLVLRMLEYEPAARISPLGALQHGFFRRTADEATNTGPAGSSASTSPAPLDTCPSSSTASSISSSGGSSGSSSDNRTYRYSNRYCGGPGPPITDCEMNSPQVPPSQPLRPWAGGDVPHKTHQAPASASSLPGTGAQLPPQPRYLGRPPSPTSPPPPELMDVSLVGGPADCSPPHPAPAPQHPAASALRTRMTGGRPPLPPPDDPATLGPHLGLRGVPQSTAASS

[1] = test system: EGFR (human), P00533 [747-751 del / S ins]
EPHA2 (human) = EPHA2 (human) (UniProt P29317)
[2] = target: JAK2 JH1 catalytic (human) (UniProt O60674)
KIT (human) = KIT (human) (UniProt P10721)
Sequence of KIT (human) (P10721 whole entry, looked up): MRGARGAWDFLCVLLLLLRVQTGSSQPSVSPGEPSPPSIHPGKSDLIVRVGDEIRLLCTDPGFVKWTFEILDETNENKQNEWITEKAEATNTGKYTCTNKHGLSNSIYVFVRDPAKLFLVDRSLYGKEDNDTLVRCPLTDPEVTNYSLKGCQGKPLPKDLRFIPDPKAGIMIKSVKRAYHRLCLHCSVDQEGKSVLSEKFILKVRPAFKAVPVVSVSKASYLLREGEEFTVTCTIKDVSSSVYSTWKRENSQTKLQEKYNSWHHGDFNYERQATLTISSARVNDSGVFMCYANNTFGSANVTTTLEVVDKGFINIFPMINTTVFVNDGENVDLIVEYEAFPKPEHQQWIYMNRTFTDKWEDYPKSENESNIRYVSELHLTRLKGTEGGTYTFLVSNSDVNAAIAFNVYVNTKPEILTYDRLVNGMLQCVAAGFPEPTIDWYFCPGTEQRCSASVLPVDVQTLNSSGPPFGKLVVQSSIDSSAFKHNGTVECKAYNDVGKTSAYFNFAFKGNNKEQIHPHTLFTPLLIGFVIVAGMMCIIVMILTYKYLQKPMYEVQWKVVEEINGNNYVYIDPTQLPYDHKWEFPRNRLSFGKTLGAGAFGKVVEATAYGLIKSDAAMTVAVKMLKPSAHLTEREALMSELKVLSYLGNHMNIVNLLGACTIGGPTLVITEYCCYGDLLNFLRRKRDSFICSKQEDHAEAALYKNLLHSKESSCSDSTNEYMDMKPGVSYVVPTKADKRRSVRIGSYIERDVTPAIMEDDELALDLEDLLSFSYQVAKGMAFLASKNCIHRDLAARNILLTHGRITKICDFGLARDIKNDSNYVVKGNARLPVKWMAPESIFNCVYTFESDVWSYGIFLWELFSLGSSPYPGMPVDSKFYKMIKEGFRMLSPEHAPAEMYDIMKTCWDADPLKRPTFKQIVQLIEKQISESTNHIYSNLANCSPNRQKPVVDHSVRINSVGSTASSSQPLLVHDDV

[3] = test system: KIT (human), P10721 [V559D/V654A]
Sequence of KIT (human), P10721 [V559D/V654A] (P10721 whole entry V559D/V654A, looked up): as the sequence (P10721 whole entry, looked up) above, with V559D, V654A counted along it

MAK (human) = MAK (human) (UniProt P20794)
MAP2K3 (human) = MAP2K3 (human) (UniProt P46734)
MAP3K9 (human) = MAP3K9 (human) (UniProt P80192)
MAPK13 (human) = MAPK13 (human) (UniProt O15264)
MAPK9 (human) = MAPK9 (human) (UniProt P45984)
Sequence of MAPK9 (human) (P45984 whole entry, looked up): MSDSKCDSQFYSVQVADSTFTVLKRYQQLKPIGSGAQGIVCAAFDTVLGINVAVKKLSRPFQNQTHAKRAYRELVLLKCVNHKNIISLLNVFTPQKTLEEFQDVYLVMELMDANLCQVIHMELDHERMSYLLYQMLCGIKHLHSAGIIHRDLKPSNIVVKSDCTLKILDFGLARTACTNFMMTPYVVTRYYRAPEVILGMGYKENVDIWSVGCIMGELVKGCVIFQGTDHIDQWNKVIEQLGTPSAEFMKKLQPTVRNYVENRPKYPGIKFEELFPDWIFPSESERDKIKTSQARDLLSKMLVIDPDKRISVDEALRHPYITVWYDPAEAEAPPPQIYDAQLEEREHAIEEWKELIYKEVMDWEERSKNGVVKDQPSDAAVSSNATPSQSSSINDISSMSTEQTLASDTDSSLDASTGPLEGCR

MARK3 (human) = MARK3 (human) (UniProt P27448)
MINK1 (human) = MINK1 (human) (UniProt Q8N4C8)
MKNK1 (human) = MKNK1 (human) (UniProt Q9BUB5)
MST4 (human) = MST4 (human) (UniProt Q9P289)
NEK5 (human) = NEK5 (human) (UniProt Q6P3R8)
Sequence of NEK5 (human) (Q6P3R8 whole entry, looked up): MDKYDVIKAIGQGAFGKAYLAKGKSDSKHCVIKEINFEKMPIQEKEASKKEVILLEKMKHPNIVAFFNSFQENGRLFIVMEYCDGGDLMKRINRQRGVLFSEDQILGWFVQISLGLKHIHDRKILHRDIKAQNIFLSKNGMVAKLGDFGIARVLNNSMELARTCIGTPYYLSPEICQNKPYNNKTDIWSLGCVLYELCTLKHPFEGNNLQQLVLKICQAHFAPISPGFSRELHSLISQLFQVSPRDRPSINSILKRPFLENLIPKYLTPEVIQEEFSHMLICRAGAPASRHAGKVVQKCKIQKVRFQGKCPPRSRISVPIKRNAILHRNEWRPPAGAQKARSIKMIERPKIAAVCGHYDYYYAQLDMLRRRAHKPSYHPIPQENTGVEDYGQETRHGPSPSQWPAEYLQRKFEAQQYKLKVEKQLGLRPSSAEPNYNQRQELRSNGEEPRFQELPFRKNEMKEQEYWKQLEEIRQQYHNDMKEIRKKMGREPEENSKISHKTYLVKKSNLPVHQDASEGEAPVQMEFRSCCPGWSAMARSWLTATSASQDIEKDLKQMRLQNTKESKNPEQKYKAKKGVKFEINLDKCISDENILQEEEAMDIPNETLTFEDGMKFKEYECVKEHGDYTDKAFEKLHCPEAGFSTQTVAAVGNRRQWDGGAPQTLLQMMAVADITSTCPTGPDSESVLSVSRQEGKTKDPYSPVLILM

NUAK1 (human) = NUAK1 (human) (UniProt O60285)
PDPK1 (human) = PDPK1 (human) (UniProt O15530)
PHKG1 (human) = PHKG1 (human) (UniProt Q16816)
ROS1 (human) = ROS1 (human) (UniProt P08922)
RPS6KA1 KD2 (human) = RPS6KA1 KD2 (human) (UniProt Q15418)
SGK110 (human) = SGK110 (human) (UniProt P0C264)
Sequence of SGK110 (human) (P0C264 whole entry, looked up): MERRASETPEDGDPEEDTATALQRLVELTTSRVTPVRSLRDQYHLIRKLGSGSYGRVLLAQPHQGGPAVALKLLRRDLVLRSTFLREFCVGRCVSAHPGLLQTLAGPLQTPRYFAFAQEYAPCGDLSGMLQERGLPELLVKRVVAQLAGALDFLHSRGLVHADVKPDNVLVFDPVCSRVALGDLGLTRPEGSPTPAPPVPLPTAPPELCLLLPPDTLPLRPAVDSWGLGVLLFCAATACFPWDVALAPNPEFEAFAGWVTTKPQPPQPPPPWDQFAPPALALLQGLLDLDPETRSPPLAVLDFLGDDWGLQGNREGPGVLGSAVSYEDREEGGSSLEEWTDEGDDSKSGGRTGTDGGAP

SLK (human) = SLK (human) (UniProt Q9H2G2)
STK32B (human) = STK32B (human) (UniProt Q9NY57)
STK39 (human) = STK39 (human) (UniProt Q9UEW8)
TGFBR1 (human) = TGFBR1 (human) (UniProt P36897)
Sequence of TGFBR1 (human) (P36897 whole entry, looked up): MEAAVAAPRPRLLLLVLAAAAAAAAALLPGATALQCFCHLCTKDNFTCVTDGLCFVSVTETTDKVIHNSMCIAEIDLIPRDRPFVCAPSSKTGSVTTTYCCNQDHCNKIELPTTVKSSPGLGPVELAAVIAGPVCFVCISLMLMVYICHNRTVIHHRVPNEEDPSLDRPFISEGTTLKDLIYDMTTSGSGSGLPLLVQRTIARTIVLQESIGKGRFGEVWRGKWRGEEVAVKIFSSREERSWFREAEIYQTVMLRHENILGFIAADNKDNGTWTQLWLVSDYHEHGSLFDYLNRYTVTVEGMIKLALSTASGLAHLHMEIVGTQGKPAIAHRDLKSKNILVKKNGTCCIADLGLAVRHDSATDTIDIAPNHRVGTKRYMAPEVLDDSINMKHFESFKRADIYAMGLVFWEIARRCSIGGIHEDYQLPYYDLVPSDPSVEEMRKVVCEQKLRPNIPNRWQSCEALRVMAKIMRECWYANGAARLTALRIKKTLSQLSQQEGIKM

TNK1 (human) = TNK1 (human) (UniProt Q13470)
ULK1 (human) = ULK1 (human) (UniProt O75385)
ULK3 (human) = ULK3 (human) (UniProt Q6PHR2)
WEE1 (human) = WEE1 (human) (UniProt P30291)
WEE2 (human) = WEE2 (human) (UniProt P0C1S8)
CIT (human) = CIT (human) (UniProt O14578)
FGFR2 (human) = FGFR2 (human) (UniProt P21802)
TSSK1B (human) = TSSK1B (human) (UniProt Q9BXA7)

Sequence of CSNK1A1L (human) (Q8N752 whole entry, looked up): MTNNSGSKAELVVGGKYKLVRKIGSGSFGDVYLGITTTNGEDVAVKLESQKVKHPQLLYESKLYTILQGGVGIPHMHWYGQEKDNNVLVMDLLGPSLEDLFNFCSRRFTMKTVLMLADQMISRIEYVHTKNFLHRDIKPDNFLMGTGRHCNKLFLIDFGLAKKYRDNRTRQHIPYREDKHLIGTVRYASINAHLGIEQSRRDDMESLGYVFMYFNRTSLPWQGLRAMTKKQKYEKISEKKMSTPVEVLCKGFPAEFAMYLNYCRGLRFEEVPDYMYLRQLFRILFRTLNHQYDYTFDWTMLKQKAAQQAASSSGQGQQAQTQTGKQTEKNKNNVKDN
Sequence of CDKL2 (human) (Q92772 whole entry, looked up): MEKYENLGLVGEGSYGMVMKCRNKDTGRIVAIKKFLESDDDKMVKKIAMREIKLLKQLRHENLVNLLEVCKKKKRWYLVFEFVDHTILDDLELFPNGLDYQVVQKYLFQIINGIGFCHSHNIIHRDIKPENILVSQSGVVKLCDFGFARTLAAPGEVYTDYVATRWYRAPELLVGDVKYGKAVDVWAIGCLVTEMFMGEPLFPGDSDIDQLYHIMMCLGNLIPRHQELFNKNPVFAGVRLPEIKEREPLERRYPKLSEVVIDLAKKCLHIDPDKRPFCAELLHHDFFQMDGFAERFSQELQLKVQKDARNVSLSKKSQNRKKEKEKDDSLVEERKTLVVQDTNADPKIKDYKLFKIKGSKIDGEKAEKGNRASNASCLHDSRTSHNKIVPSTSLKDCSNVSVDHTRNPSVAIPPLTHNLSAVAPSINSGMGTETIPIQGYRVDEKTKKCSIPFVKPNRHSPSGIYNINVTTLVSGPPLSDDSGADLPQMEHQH
Sequence of BMPR1B (human) (O00238 whole entry, looked up): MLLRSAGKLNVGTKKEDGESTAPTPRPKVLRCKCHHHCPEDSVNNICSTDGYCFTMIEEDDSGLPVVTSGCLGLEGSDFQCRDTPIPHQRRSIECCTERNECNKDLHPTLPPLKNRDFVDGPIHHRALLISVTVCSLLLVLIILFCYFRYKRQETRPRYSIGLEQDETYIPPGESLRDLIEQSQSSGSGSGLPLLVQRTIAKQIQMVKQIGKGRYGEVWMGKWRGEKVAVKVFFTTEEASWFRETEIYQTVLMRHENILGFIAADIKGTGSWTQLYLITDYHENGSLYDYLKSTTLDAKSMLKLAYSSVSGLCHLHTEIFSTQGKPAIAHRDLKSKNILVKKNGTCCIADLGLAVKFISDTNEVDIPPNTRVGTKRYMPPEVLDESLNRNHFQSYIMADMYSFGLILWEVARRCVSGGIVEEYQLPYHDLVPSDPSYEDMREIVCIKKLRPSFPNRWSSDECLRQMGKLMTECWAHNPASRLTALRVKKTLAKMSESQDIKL

Structure (SMILES) | kinase still bound, per cent of control (BMPR1B (human)) [%] | kinase still bound, per cent of control (BRAF (human)) [%] | kinase still bound, per cent of control (CDK19 (human)) [%] | kinase still bound, per cent of control (CDKL2 (human)) [%] | kinase still bound, per cent of control (CSNK1A1L (human)) [%] | kinase still bound, per cent of control (CSNK2A1 (human)) [%] | kinase still bound, per cent of control (DYRK1B (human)) [%] | kinase still bound, per cent of control (EPHA2 (human)) [%] | kinase still bound, per cent of control [2] [%] | kinase still bound, per cent of control (KIT (human)) [%] | kinase still bound, per cent of control [3] [%] | kinase still bound, per cent of control (MAP2K3 (human)) [%] | kinase still bound, per cent of control (MAP3K9 (human)) [%] | kinase still bound, per cent of control (MAPK13 (human)) [%] | kinase still bound, per cent of control (MAPK9 (human)) [%] | kinase still bound, per cent of control (MINK1 (human)) [%] | kinase still bound, per cent of control (MKNK1 (human)) [%] | kinase still bound, per cent of control (MST4 (human)) [%] | kinase still bound, per cent of control (NEK5 (human)) [%] | kinase still bound, per cent of control (NUAK1 (human)) [%] | also measured
COc1cc2ncn(-c3cc(OCc4ccccc4C(F)(F)F)c(C(N)=O)s3)c2cc1OC | 64 | 100 | 100 | 90 | 78 | 30 | 87 | 44 | 48 | 30 | 100 | 78 | 71 | 100 | 78 | 63 | 88 | 85 | 36 | 21 | kinase still bound, per cent of control [1]: 100%; kinase still bound, per cent of control (MAK (human)): 100%; kinase still bound, per cent of control (MARK3 (human)): 78%; kinase still bound, per cent of control (PDPK1 (human)): 66%; kinase still bound, per cent of control (PHKG1 (human)): 88%; kinase still bound, per cent of control (ROS1 (human)): 78%; kinase still bound, per cent of control (RPS6KA1 KD2 (human)): 63%; kinase still bound, per cent of control (SGK110 (human)): 100%; kinase still bound, per cent of control (SLK (human)): 0.25%; kinase still bound, per cent of control (STK32B (human)): 100%; kinase still bound, per cent of control (STK39 (human)): 89%; kinase still bound, per cent of control (TGFBR1 (human)): 86%; kinase still bound, per cent of control (TNK1 (human)): 36%; kinase still bound, per cent of control (ULK1 (human)): 92%; kinase still bound, per cent of control (ULK3 (human)): 77%; kinase still bound, per cent of control (WEE1 (human)): 83%; kinase still bound, per cent of control (WEE2 (human)): 100%
C=CC(=O)Nc1ccc(CN(C(=O)Nc2c(Cl)c(OC)cc(OC)c2Cl)c2cc(Nc3ccc(N4CCN(C)CC4)cc3)ncn2)cc1 | 100 | 100 | 100 | 0.35 | 100 | 100 | 100 | 100 | 100 | 0.3 | 100 | 100 | 12 | 4.9 | 100 | 100 | 100 | 100 | 100 | 100 | kinase still bound, per cent of control (CIT (human)): 100%; kinase still bound, per cent of control [1]: 0.65%; kinase still bound, per cent of control (FGFR2 (human)): 1.9%; kinase still bound, per cent of control (MARK3 (human)): 100%; kinase still bound, per cent of control (PDPK1 (human)): 100%; kinase still bound, per cent of control (PHKG1 (human)): 100%; kinase still bound, per cent of control (ROS1 (human)): 100%; kinase still bound, per cent of control (RPS6KA1 KD2 (human)): 100%; kinase still bound, per cent of control (SGK110 (human)): 100%; kinase still bound, per cent of control (SLK (human)): 9.8%; kinase still bound, per cent of control (STK32B (human)): 100%; kinase still bound, per cent of control (TGFBR1 (human)): 100%; kinase still bound, per cent of control (TNK1 (human)): 28%; kinase still bound, per cent of control (TSSK1B (human)): 100%; kinase still bound, per cent of control (ULK1 (human)): 100%; kinase still bound, per cent of control (ULK3 (human)): 100%; kinase still bound, per cent of control (WEE1 (human)): 100%; kinase still bound, per cent of control (WEE2 (human)): 100%
C[C@@H](Oc1cc(-c2cnn(C3CCNCC3)c2)cnc1N)c1c(Cl)ccc(F)c1Cl | 61 | 53 | 100 | 5.4 | 100 | 65 | 84 | 1.5 | 1.4 | 43 | 100 | 42 | 80 | 100 | 82 | 18 | 100 | 13 | 63 | 0.7 | kinase still bound, per cent of control (CIT (human)): 62%; kinase still bound, per cent of control (FGFR2 (human)): 35%; kinase still bound, per cent of control (MAK (human)): 63%; kinase still bound, per cent of control (PDPK1 (human)): 100%; kinase still bound, per cent of control (PHKG1 (human)): 100%; kinase still bound, per cent of control (ROS1 (human)): 1.1%; kinase still bound, per cent of control (RPS6KA1 KD2 (human)): 54%; kinase still bound, per cent of control (SGK110 (human)): 3.4%; kinase still bound, per cent of control (SLK (human)): 0.1%; kinase still bound, per cent of control (STK32B (human)): 100%; kinase still bound, per cent of control (STK39 (human)): 99%; kinase still bound, per cent of control (TGFBR1 (human)): 4%; kinase still bound, per cent of control (TNK1 (human)): 7.1%; kinase still bound, per cent of control (TSSK1B (human)): 40%; kinase still bound, per cent of control (ULK1 (human)): 1%; kinase still bound, per cent of control (ULK3 (human)): 8.8%; kinase still bound, per cent of control (WEE1 (human)): 100%; kinase still bound, per cent of control (WEE2 (human)): 100%
